The target in this test is T1, Androgen Receptor (Homo sapiens, UniProt P10275).
T1 construct: endogenous in cells; host or cells: VCaP cells
T1 sequence (P10275 1-920): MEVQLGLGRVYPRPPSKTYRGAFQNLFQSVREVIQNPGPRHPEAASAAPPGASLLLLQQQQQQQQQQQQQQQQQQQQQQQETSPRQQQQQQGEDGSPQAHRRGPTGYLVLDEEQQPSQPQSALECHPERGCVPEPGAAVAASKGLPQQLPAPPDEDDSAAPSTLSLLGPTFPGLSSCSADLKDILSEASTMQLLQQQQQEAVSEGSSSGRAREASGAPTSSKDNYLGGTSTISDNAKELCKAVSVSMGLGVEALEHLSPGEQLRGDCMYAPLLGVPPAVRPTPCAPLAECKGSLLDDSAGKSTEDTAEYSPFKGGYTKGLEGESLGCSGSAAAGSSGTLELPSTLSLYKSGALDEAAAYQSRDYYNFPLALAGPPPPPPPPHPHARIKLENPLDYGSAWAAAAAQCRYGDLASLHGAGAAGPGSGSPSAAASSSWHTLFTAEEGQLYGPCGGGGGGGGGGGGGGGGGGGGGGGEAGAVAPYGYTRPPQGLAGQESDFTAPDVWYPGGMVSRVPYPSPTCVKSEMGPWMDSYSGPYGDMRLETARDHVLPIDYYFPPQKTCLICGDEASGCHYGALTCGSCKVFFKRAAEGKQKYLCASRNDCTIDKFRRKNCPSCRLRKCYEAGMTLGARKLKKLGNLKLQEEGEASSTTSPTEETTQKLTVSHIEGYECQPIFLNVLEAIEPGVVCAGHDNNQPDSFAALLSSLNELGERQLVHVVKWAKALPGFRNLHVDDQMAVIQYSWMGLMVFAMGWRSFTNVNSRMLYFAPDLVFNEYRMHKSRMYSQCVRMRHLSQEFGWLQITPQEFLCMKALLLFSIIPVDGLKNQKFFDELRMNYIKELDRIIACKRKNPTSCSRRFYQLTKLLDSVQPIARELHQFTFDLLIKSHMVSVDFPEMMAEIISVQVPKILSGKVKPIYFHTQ
Put plainly: Androgen Receptor ELISA assay (PathScan AR ELISA) in VCaP cells: AR degradation, Dmax and DC50. The class given is cell-based. Conditions: VCaP cells, Table 35; for Dmax: VCaP, read-out: VCaP Dmax (%); for DC50: read-out: VCaP DC50. The gist of the method:
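After 24 h exposure of VCaP cells (charcoal-stripped serum, 0.1 nM R1881 agonist, 0.1% DMSO) to seven half-log compound concentrations, residual AR in lysates was measured by PathScan ELISA (TMB absorbance, 450 nm). Cells were plated at 30,000/well and grown at least 3 days beforehand.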

Some results are limits rather than exact numbers.

`Cc1ncsc1-c1ccc(CNC(=O)[C@@H]2C[C@@H](O)CN2C(=O)[C@@H](NC(=O)COCCCOCCCCCOc2ccc(N3C(=S)N(c4ccccc4)C(=O)C3(C)C)cc2)C(C)(C)C)cc1` [Example 477]: the Dmax was below 25%.
Regarding `Cc1ncsc1-c1ccc(CNC(=O)[C@@H]2C[C@@H](O)CN2C(=O)[C@@H](NC(=O)COCCCOCCCCCOc2ccc(N3C(=S)N(c4cccc(C(F)(F)F)c4)C(=O)C3(C)C)cc2)C(C)(C)C)cc1` [Example 478], the DC50 lay in the range of 51 to 500 nM and the Dmax was in the range of 26 to 50%.
As for `Cc1ncsc1-c1ccc(CNC(=O)[C@@H]2C[C@@H](O)CN2C(=O)[C@@H](NC(=O)COCCCOCCCCCOc2ccc(N3C(=S)N(c4ccc(C#N)cc4)C(=O)C3(C)C)cc2)C(C)(C)C)cc1` [Example 479], the greatest degradation seen (Dmax) lay within 26 to 50%.
`CC(C)(C)[C@H](NC(=O)CNCCCCCNc1ccc(C(=O)N[C@H]2C(C)(C)[C@H](Oc3ccc(C#N)c(Cl)c3)C2(C)C)cc1)C(=O)N1C[C@H](O)C[C@H]1C(=O)NCc1ccc(C#N)cc1` [Example 480]: the DC50 was above 501 nM and the Dmax was in the range of 26 to 50%.
With `Cc1ncsc1-c1ccc(CNC(=O)[C@@H]2C[C@H](O)CN2C(=O)[C@@H](NC(=O)COCCOc2ccc(-c3ccc(C(=O)N[C@H]4C(C)(C)[C@H](Oc5ccc(C#N)c(Cl)c5)C4(C)C)cc3)cc2)C(C)(C)C)cc1` [Example 481], the 50% degradation concentration (DC50) is above 501 nM and the Dmax was below 25%.
Take `Cc1ncsc1-c1ccc([C@H](C)NC(=O)[C@@H]2C[C@@H](O)CN2C(=O)[C@@H](NC(=O)COCCCCCNc2ccc(C(=O)N[C@H]3C(C)(C)[C@H](Oc4ccc(C#N)c(Cl)c4)C3(C)C)nc2)C(C)(C)C)cc1` [Example 482]: the 50% degradation concentration (DC50) was below 50 nM and the greatest degradation seen (Dmax) lay within 51 to 70%.
In the case of `Cc1ncsc1-c1ccc([C@H](C)NC(=O)[C@@H]2C[C@@H](O)CN2C(=O)[C@@H](NC(=O)CNCCNc2ccc(-c3ccc(C(=O)N[C@H]4C(C)(C)[C@H](Oc5ccc(C#N)c(Cl)c5)C4(C)C)cc3)cn2)C(C)(C)C)cc1` [Example 483], the 50% degradation concentration (DC50) was below 50 nM and the Dmax is above 71%.
Regarding `Cc1ncsc1-c1ccc(CNC(=O)[C@@H]2C[C@@H](O)CN2C(=O)[C@@H](NC(=O)CNCCNc2ccc(-c3ccc(C(=O)N[C@H]4C(C)(C)[C@H](Oc5ccc(C#N)c(Cl)c5)C4(C)C)cc3)cn2)C(C)(C)C)cc1` [Example 484], the DC50 was below 50 nM and the Dmax was 51 to 70%.
Consider `Cc1ncsc1-c1ccc([C@H](C)NC(=O)[C@@H]2C[C@@H](O)CN2C(=O)[C@@H](NC(=O)COCCCCCNc2ccc(C(=O)N[C@H]3C(C)(C)[C@H](Oc4ccc(C#N)c(Cl)c4)C3(C)C)c(F)c2)C(C)(C)C)cc1` [Example 495], for which the DC50 was above 501 nM and the maximal degradation (Dmax) was 26 to 50%.
For `Cc1ncsc1-c1ccc([C@H](C)NC(=O)[C@@H]2C[C@@H](O)CN2C(=O)[C@@H](NC(=O)COCCCCCNc2ccc(C(=O)N[C@H]3C[C@H](Oc4ccc(C#N)c(Cl)c4)C3)cc2)C(C)(C)C)cc1` [Example 496], in that order: below 50 nM and 51 to 70%.
Regarding `Cc1ncsc1-c1ccc([C@H](C)NC(=O)[C@@H]2C[C@@H](O)CN2C(=O)[C@@H](NC(=O)COCCCCCNc2ccc(C(=O)N[C@H]3C(C)(C)[C@H](Oc4cnc(C#N)c(C(F)(F)F)c4)C3(C)C)cc2)C(C)(C)C)cc1` [Example 497], the DC50 is below 50 nM and the Dmax fell in the range of 51 to 70%.
Turning to `CC(C)(C)[C@H](NC(=O)CNc1ccc(C#Cc2ccc(C(=O)N[C@H]3C(C)(C)[C@H](Oc4ccc(C#N)c(Cl)c4)C3(C)C)cc2)cn1)C(=O)N1C[C@H](O)C[C@H]1C(=O)NCc1ccc(C#N)cc1` [Example 498], the 50% degradation concentration (DC50) is below 50 nM and the Dmax is above 71%.
For `CC(C)(C)[C@H](NC(=O)COCCCCCNc1ccc(C(=O)N[C@H]2C(C)(C)[C@H](Oc3ccc(C#N)c(Cl)c3)C2(C)C)cc1)C(=O)N1C[C@H](O)C[C@H]1C(=O)NCc1ccc(C2=CCNCC2)cc1` [Example 499], in that order: above 501 nM and 26 to 50%.
For `CC(C)(C)[C@H](NC(=O)CNCCNc1ccc(-c2ccc(C(=O)N[C@H]3C(C)(C)[C@H](Oc4ccc(C#N)c(Cl)c4)C3(C)C)cc2)cn1)C(=O)N1C[C@H](O)C[C@H]1C(=O)NCc1ccc(C#N)cc1` [Example 500], in that order: below 50 nM and 26 to 50%.
For `CC(C)(C)[C@H](NC(=O)CNCCOc1ccc(-c2ccc(C(=O)N[C@H]3C(C)(C)[C@H](Oc4ccc(C#N)c(Cl)c4)C3(C)C)cc2)cc1)C(=O)N1C[C@H](O)C[C@H]1C(=O)NCc1ccc(C#N)cc1` [Example 501], in that order: below 50 nM and 51 to 70%.
For the compound `CC(C)(C)[C@H](NC(=O)COCCCCCNc1ccc(C(=O)N[C@H]2C(C)(C)[C@H](Oc3ccc(C#N)c(Cl)c3)C2(C)C)cc1)C(=O)N1C[C@H](O)C[C@H]1C(=O)NCc1ccc(-c2scnc2C(=O)O)cc1` [Example 502], the half-maximal degradation concentration (DC50) is 51 to 500 nM and the Dmax was in the range of 26 to 50%.
For `CC(C)(C)[C@H](NC(=O)COCCCCCNc1ccc(C(=O)N[C@H]2C(C)(C)[C@H](Oc3ccc(C#N)c(Cl)c3)C2(C)C)cc1)C(=O)N1C[C@H](O)C[C@H]1C(=O)NCc1ccc(-c2scnc2N)cc1` [Example 503], in that order: below 50 nM and above 71%.
For `CC(C)(C)[C@H](NC(=O)COCCCCCNc1ccc(C(=O)N[C@H]2C(C)(C)[C@H](Oc3ccc(C#N)c(Cl)c3)C2(C)C)cc1)C(=O)N1C[C@H](O)C[C@H]1C(=O)NCc1ccc(-c2ncns2)cc1` [Example 504], in that order: below 50 nM and 51 to 70%.
For `CC(C)(C)[C@H](NC(=O)COCCCCCNc1ccc(C(=O)N[C@H]2C(C)(C)[C@H](Oc3ccc(C#N)c(Cl)c3)C2(C)C)cc1)C(=O)N1C[C@H](O)C[C@H]1C(=O)NCc1ccc(-n2cnnn2)cc1` [Example 505], in that order: below 50 nM and 26 to 50%.
For the compound `CC(C)(C)[C@H](NC(=O)COCCCCCNc1ccc(C(=O)N[C@H]2C(C)(C)[C@H](Oc3ccc(C#N)c(Cl)c3)C2(C)C)cc1)C(=O)N1C[C@H](O)C[C@H]1C(=O)NCc1ccc(-n2ncnn2)cc1` [Example 506], the half-maximal degradation concentration (DC50) was below 50 nM and the maximal degradation (Dmax) fell in the range of 51 to 70%.
For `CNC(=O)[C@@H]1C[C@@H](O)CN1C(=O)[C@@H](NC(=O)COCCCCCOc1ccc(C(=O)N[C@H]2C(C)(C)[C@H](Oc3ccc(C#N)c(Cl)c3)C2(C)C)cc1)C(C)(C)C` [Example 507], the 50% degradation concentration (DC50) is below 50 nM and the maximal degradation (Dmax) is 26 to 50%.
For `CNCC(NC(=O)[C@@H]1C[C@@H](O)CN1C(=O)[C@@H](NC(=O)COCCCCCOc1ccc(C(=O)N[C@H]2C(C)(C)[C@H](Oc3ccc(C#N)c(Cl)c3)C2(C)C)cc1)C(C)(C)C)c1ccc(-c2scnc2C)cc1` (stereo partly drawn) [Example 508], in that order: below 50 nM and above 71%.
For `CC(C)(C)[C@H](NC(=O)COCCCCCOc1ccc(C(=O)N[C@H]2C(C)(C)[C@H](Oc3ccc(C#N)c(Cl)c3)C2(C)C)cc1)C(=O)N1C[C@H](O)C[C@H]1C(=O)O` [Example 509], in that order: 51 to 500 nM and 26 to 50%.
Regarding `COc1cc(C#N)ccc1CNC(=O)[C@@H]1C[C@@H](O)CN1C(=O)[C@@H](NC(=O)COCCCCCNc1ccc(C(=O)N[C@H]2C(C)(C)[C@H](Oc3ccc(C#N)c(Cl)c3)C2(C)C)cc1)C(C)(C)C` [Example 510], the DC50 was below 50 nM and the Dmax was in the range of 51 to 70%.
On to `CNC(=O)c1ccc(CNC(=O)[C@@H]2C[C@@H](O)CN2C(=O)[C@@H](NC(=O)COCCCCCNc2ccc(C(=O)N[C@H]3C(C)(C)[C@H](Oc4ccc(C#N)c(Cl)c4)C3(C)C)cc2)C(C)(C)C)cc1` [Example 511], for which the half-maximal degradation concentration (DC50) was below 50 nM and the Dmax was in the range of 51 to 70%.
For `CC(C)(C)[C@H](NC(=O)COCCCCCNc1ccc(C(=O)N[C@H]2C(C)(C)[C@H](Oc3ccc(C#N)c(Cl)c3)C2(C)C)cc1)C(=O)N1C[C@H](O)C[C@H]1C(=O)NCc1ccc(C(=O)O)cc1` [Example 512], in that order: 51 to 500 nM and 51 to 70%.
For `Cc1ncsc1-c1ccc(CNC(=O)[C@@H]2C[C@@H](O)CN2C(=O)[C@@H](NC(=O)COCCNc2ccc(-c3c(F)cc(C(=O)N[C@H]4C(C)(C)[C@H](Oc5ccc(C#N)c(Cl)c5)C4(C)C)cc3F)cn2)C(C)(C)C)cc1` [Example 513], in that order: below 50 nM and above 71%.
With `CNC[C@@H](NC(=O)[C@@H]1C[C@@H](O)CN1C(=O)[C@@H](NC(=O)COCCCCCOc1ccc(C(=O)N[C@H]2C(C)(C)[C@H](Oc3ccc(C#N)c(Cl)c3)C2(C)C)cc1)C(C)(C)C)c1ccc(-c2scnc2C)cc1` [Example 514], the half-maximal degradation concentration (DC50) is above 501 nM and the maximal degradation (Dmax) is 26 to 50%.

For the origin of these results see patent publication US11427548B2 (Arvinas Operations, Inc., priority 2015, dated 2022).
